Measured values reported in patent publication USRE42890E1, “Furazanobenzimidazoles” (Basilea Pharmaceutica AG, priority 2003, dated 2011).

Legend:
Jurkat = experiment: MTS proliferation assay, Jurkat; assay type: cell-based, human; conditions: 72 h incubation, read-out: MTS proliferation assay IC 50 Jurkat
Summary of the method: (§1)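 Absorbance at 492 nm after 3 h with MTS reagent gave the proliferation read-out. Before that, cells in RPMI-1640 complete medium (5% or 10% FCS) were treated 72 h with compound at four final concentrations, 0.3 to 10 μM.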

HeLa = experiment: MTS proliferation assay, HeLa; assay type: cell-based, human; conditions: 72 h incubation, read-out: MTS proliferation assay IC 50 HeLa
Summary of the method: as §1

[1] = system: adherent cells or suspension cells; experiment: Hoechst 33342 nuclear staining (fraction of apoptotic nuclei); assay type: cell-based; design: key: 0 relating to no activity; 1 relating to weak activity comprising less than 70% of the cells; score 2 relating to strong activity comprising more than 70% of the cells
Method: (§2) Cell lines are cultured in RPMI-1640 tissue culture medium containing either 5% or 10% fetal calf serum, 0.05 mM 2-mercaptoethanol, 2 mM glutamine and penicillin/streptomycin 50 μg/ml (complete medium) (Sigma, Buchs, Switzerland). General growth conditions are 37° C. and 7.5% CO2.
This assay is performed in 96 well tissue culture plates. Appropriate number of cells (adherent cells: 3-5*10^3, suspension cells: 8-10*10^3) are being seeded out in 80 μl complete medium. Adherent cells are incubated for 24 h for proper spreading out before addition of test compounds while suspension cells are immediately treated with test compounds after seeding out. The test compounds are added in 20 μl complete medium containing max 5% DMSO. […] After 24 h or 48 h incubation at culture conditions, 10 μl medium containing Hoechst 33342 dye (Sigma B-2261) at 2-5 μg/ml are added to each well. The assay plates are then further incubated for 30 minutes and subsequently analyzed with a standard inverted fluorescence microscope.
The readout allows the determination of the fraction of apoptotic nuclei as well as other morphological criteria specific for apoptosis as a function of the treatment. The following scores are used: 0 relating to no activity, 1 relating to weak activity comprising less than 70% of the cells and score 2 relating to strong activity comprising more than 70% of the cells.

MRC5 = experiment: MTS proliferation assay, MRC5; assay type: cell-based; conditions: MRC5, 72 h incubation; read-out: MTS proliferation assay IC 50 MRC5
Summary of the method: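 Read-out: MTS absorbance at 492 nm after 3 h reagent incubation. Before that, cells grew 72 h at 37° C/7.5% CO2 with test compounds at final concentrations of 10 μM, 3 μM, 1 μM and 0.3 μM, added 24 h post-seeding.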

HT1080 = experiment: MTS proliferation assay, HT1080; assay type: cell-based, human; conditions: HT1080, 72 h incubation; read-out: MTS proliferation assay IC 50 HT1080
Method: as §2
The following human cell lines (either EGFP transfected or not) are being used: HeLa (ATCC: CCL-2), KB (ATCC: CCL-17), MCF7 (ATCC: HTB-22), SK-BR-3 (ATCC: HTB-30), SK-Mel 1 (ATCC: HTB-67), SK-Mel 28 (ATCC: HTB-72), PC-3 (ATCC: CRL-1435), SW 480 (ATCC: CCL-228), NCl-H460 (ATCC: HTB-177), NCl-H1792 (ATCC: CRL-5895), HT1080 (ATCC: CCL-21), Jurkat (ATCC: TIB-152), Ramos (ATCC: CRL-1596), Raji (ATCC: CCL-86), H9 (ATCC: HTB-176), Hut78 (ATCC: TIB-161), K562 (ATCC: CCL 243), HL-60 (ATCC: CCL 240), U-87MG (ATCC: HTB-14), HepG2 (ATCC: HB-8065), U-2 OS (ATCC: HTB-96), Saos-2 (ATCC: HTB-85), U937 (ATCC: CRL 1593), Hs 578T (ATCC: HTB 126), HBL-100 (ATCC: HTB 124), Molt-4 (ATCC: CRL 1582).
The assay is performed in 96 well tissue culture plates. The cells (range: 1.5*10^3-10^4) are seeded out in 80 μl complete medium 24 h prior to compound treatment. The test compounds are added in 20 μl complete medium containing max 5% DMSO. The final compound concentrations in the assays are 10 μM, 3 μM, 1 μM and 0.3 μM, respectively. The assay plates are incubated for 72 h at culture conditions. The MTS reagent is prepared according to the manufacturer's protocol (Promega G1111). 20 μl MTS reagent are added to each well, the assay plates are quickly spun and incubated for another 3 h at culture conditions. Subsequently, the plates are shortly shaked and absorption measured with a microplate-reader at 492 nm.

SMILES	IC50 (Jurkat)	IC50 (HeLa)	Hoechst 33342 nuclear staining score ([1]; H460, conc 0.01 μm)	Hoechst 33342 nuclear staining score ([1]; H460, conc 0.1 μm)	Hoechst 33342 nuclear staining score ([1]; H460, conc 1 μm)	Hoechst 33342 nuclear staining score ([1]; HeLa, conc 0.01 μm)	Hoechst 33342 nuclear staining score ([1]; HeLa, conc 0.1 μm)	Hoechst 33342 nuclear staining score ([1]; HeLa, conc 1 μm)	Hoechst 33342 nuclear staining score ([1]; Jily, conc 0.01 μm)	Hoechst 33342 nuclear staining score ([1]; Jily, conc 0.1 μm)	Hoechst 33342 nuclear staining score ([1]; Jily, conc 1 μm)	Hoechst 33342 nuclear staining score ([1]; Jurkat, conc 0.01 μm)	Hoechst 33342 nuclear staining score ([1]; Jurkat, conc 0.1 μm)	Hoechst 33342 nuclear staining score ([1]; Jurkat, conc 1 μm)	Hoechst 33342 nuclear staining score ([1]; MRC5, conc 0.01 μm)	Hoechst 33342 nuclear staining score ([1]; MRC5, conc 0.1 μm)	Hoechst 33342 nuclear staining score ([1]; MRC5, conc 1 μm)	Hoechst 33342 nuclear staining score ([1]; PBLs, conc 0.01 μm)	Hoechst 33342 nuclear staining score ([1]; PBLs, conc 0.1 μm)	Hoechst 33342 nuclear staining score ([1]; PBLs, conc 1 μm)	other results
COc1ccc(C(=O)Cn2c(-c3nonc3N)nc3cc(OC)c(OC)cc32)cc1 [Example 116]	> 1 µM	> 1 µM	0	0	0	0	0	0	0	0	0	0	0	0	0	0	0	0	0	0	IC50 (MRC5): > 1 µM; IC50 (HT1080): > 1 µM
COc1cc2nc(-c3nonc3N)n(CC(=O)c3ccccc3)c2cc1OC [Example 113]	> 1 µM	> 1 µM	0	0	0	0	0	0	0	0	0	0	0	0	0	0	0	0	0	0	IC50 (MRC5): > 1 µM; IC50 (HT1080): > 1 µM
COc1cc2nc(-c3nonc3N)n(CC(=O)c3ccc(Cl)cc3)c2cc1OC [Example 114]	> 1 µM	> 1 µM	0	0	0	0	0	0	0	0	0	0	0	0	0	0	0	0	0	0	IC50 (MRC5): > 1 µM; IC50 (HT1080): > 1 µM
Cc1cc2nc(-c3nonc3N)n(CC(=O)c3ccc(-c4ccccc4)cc3)c2cc1C [Example 112]	> 1 µM	> 1 µM	0	0	0	0	0	0	0	0	0	0	0	0	0	0	0	0	0	0	IC50 (MRC5): > 1 µM; IC50 (HT1080): > 1 µM
COc1ccc(C(=O)Cn2c(-c3nonc3N)nc3cc(C)c(C)cc32)cc1 [Example 111]	> 1 µM	> 1 µM	0	0	0	0	0	0	0	0	0	0	0	0	0	0	0	0	0	0	IC50 (MRC5): > 1 µM; IC50 (HT1080): > 1 µM
Cc1cc2nc(-c3nonc3N)n(CC(=O)c3ccc(Cl)cc3)c2cc1C [Example 110]	> 1 µM	> 1 µM	0	0	0	0	0	0	0	0	0	0	0	0	0	0	0	0	0	0	IC50 (MRC5): > 1 µM; IC50 (HT1080): > 1 µM
N#Cc1ccc(C(=O)Cn2c(-c3nonc3N)nc3ccccc32)cc1 [Example 63]	> 1 µM	> 1 µM	0	0	0	0	0	0	0	0	0	0	0	0	0	0	0	0	0	0	IC50 (MRC5): > 1 µM; IC50 (HT1080): > 1 µM
